Source: patent US7700584B2 (Hangzhou Minsheng Pharmaceuticals Co., Ltd., priority 2004, dated 2010)
Where two headings read alike, the source gives them in different places.

How the values were obtained:
[1] = biological target: T1, HIV-1 integrase (HIV-1 IN) (Human immunodeficiency virus type 1 group M subtype B, UniProt P04585); assay: Screening for the activity against HIV-1 integrase; type: biochemical; details: for inhibition at 100 µg/mL: read-out: IC50
T1 construct: a purified HIV-1 integrase was added into each well; purchased
Description: Principle of the test: A synthetic oligonucleotide of 30 nt was used as the donor substrate. A synthetic oligonucleotide of 20 nt was used as the target substrate. A 96-well plate was covered by the donor substrate, and a purified HIV-1 integrase was added into each well. ELISA was performed to measure the product of the target DNA chain transfer. A biotin-labeled alkali phosphatase was used to visual the system. OD value was measured by an Enzyme-linked Detector. Add a sample into the reaction system for screening the inhibitor of the enzyme.
1. HIV-1 IN: commercially available.
2. Treatment of the samples: Before use, the sample was dissolved in water or DMSO at a suitable concentration, then serially diluted (5×), four serial dilutions per sample. The stock solutions of two samples were 100-fold diluted with DMSO, then 5-fold diluted, four serial dilutions per sample. Positive control: S-y, provided by Shanghai Organic Chemistry Institute.
3. The donor substrate and target substrate: synthesized by Shanghai Biological Engineering Company (Shanghai Shenggong).
4. Methods: The diluted sample was added into a 96-well plate covered by the donor substrate, and then added into the reaction buffer containing the genetic engineered target enzyme and biotin-target substrate, incubated in the optimal reaction conditions. A biotin-labeled alkali phosphatase was used to visual the system to determine the absorbance at 450 nm (OD450).

[2] = test system: eight selected tumor cell lines; assay: In vitro anti-tumor IC50, summary over the selected tumor cell lines; type: cell-based; details: Hela and U-937, also U-937 and HL-60 cell lines
Description: (1) Single cell suspension was seeded into 96-well plates (the cells was diluted in the PRMI-1640 minimum medium to 3×10^4 cells/ml, […] diluted cells/well). […] The experiments were performed in quadruplicate.
(2) The medium was removed. Solutions of the anti-tumor agents (50 compounds) were prepared in a freshly prepared medium at serial concentrations. […] of the solution was added into each well. Incubation was continued for 48 hours.
(3) 20 ug of 2 mg/ml MTT was added into each well, and incubated for 4 hours.
(4) The medium was removed from the well. The microplates were swiftly turned down to throw-off the medium. […] of DMSO was added into each well, and vortexed at room temperature for 10 minutes.
(5) OD value (λ=570 nm) was measured with an Enzyme-Linked Detector.
(6) The graph of cell vitality was plotted, and IC50 was calculated.

[3] = test system: MCF-7 human mammary adenocarcinoma; assay: In vitro inhibition rate to tumor cells (MTT), MCF-7; type: cell-based; details: for inhibition at 50 µg/mL: Homo sapiens, MCF7, 50 μg/ml, read-out: inhibition rate, Results (%) MCF-7; for inhibition rate, Results (%) MCF-7: 50 μg/ml
Hepatitis B virus (HBV) = type: cell-based; details: 200 μg/ml; for (Value of the positive control - Measured Value) Value of the positive control × 100%: decrease of HBeAg relative to positive control; for OD450 of HBeAg: supernatant four days after infection, positive control 1.917, negative 0.057
HepG2 cells = assay: Cell status of HepG2 cells treated with sample (HBV screening); type: cell-based; details: 200 μg/ml, HepG2, four days after infection
[4] = test system: mouse grafted liver cancer H22; assay: Activity against mouse grafted liver cancer H22; type: in vivo, Kunming mice; details: for Tumor weight: X ± SD, n = 10
Description: The experiments were performed according to “Guideline for New Drugs (Western medicines) in Pre-clinical Stages” issued by Bureau of Drug Policy & Administration of the People's Republic of China, and the relevant methods in “Methodology of Pharmaceutical Experiments”, Xu Shuyun et al. ed. 120 male Kunming mice weighting […] were allowed to grow 3 days. No abnormality was observed. The mice were routinely inoculated in oxter with mouse sarcoma S-180, and weighted 4 hrs. after inoculation. The mice were randomly divided into 12 groups, 10 mice/group. Group 1 was given 0.3 ml of physiological saline as negative control; Group 2 was given 5-FU as positive control, 0.6 mg/mouse; Group 3 was given hydroxycamptothecine as positive control, 0.02 mg/mouse. Groups 4, 5 and 6 were injected with 10% Compound 6, 0.4 ml/mouse, 0.2 ml/mouse, and 0.1 ml/mouse, respectively. Groups 7, 8 and 9 were injected with 10% Compound 8, 0.4 ml/mouse, 0.2 ml/mouse, and 0.1 ml/mouse, respectively. Groups 10, 11, and 12 were injected with 10% Compound 20, 0.4 ml/mouse, 0.2 ml/mouse, and 0.1 ml/mouse, respectively. The tested compounds were administered on the next day after inoculation, once a day on alternate days, 6 doses totally administered. On the next day after the end dose, the mice were weighed and sacrificed. After the tumor was excised, body weight and tumor weight were recorded. The tumor inhibition rate was calculated based on the following formula: [(average tumor weight of the control groups−average tumor weight of the experimental groups)/average tumor weight of the control groups]×100%. The data was processed statistically. The above experiments were repeated three times.
The experiments were identical with the experiments for activity against mouse grafted sarcoma S-180, except that the cell line inoculated was liver cancer H22. The experiments were repeated three times.

MDCK (dog kidney) cells = assay: Toxicity TC50 of the samples in MDCK cells (influenza screening); details: concentration of 50% toxicity
[5] = initial concentration 100 μg/ml
[6] = H22, first experiment, 10 mg/kg i.v., 6 doses
[7] = H22, first experiment, 20 mg/kg i.v., 6 doses
[8] = H22, first experiment, 40 mg/kg i.v., 6 doses
[9] = H22, second experiment, 10 mg/kg
[10] = H22, second experiment, 20 mg/kg
[11] = H22, second experiment, 40 mg/kg
[12] = H22, third experiment, 10 mg/kg
[13] = H22, third experiment, 20 mg/kg
[14] = H22, third experiment, 40 mg/kg

Structure (SMILES): CC(C)C1CC23OC1(O)CC(=CN1CCNCC1)C2CCC3C (centres unmarked) [Compound 7, Curcumol piperazine]
- inhibition at 100 µg/mL [1, 5]: < 50%
- activity to Hela, U-937 and HL-60 cell lines (in words) [2]: excellent activity
- inhibition at 50 µg/mL ([3]; Table 1): 88.3%
- inhibition at 50 µg/mL ([3]; Table 2 (repeated screening)): 85%
- inhibition at 50 µg/mL ([3]; Table 3 (repeated screening)): 84.1%

Structure (SMILES): CC(C)C1CC23OC1(O)CC(=CBr)C2CCC3C (centres unmarked) [Compound 17, Curcumol monobromide]
- (Value of the positive control - Measured Value) Value of the positive control × 100% (Hepatitis B virus (HBV)): 96.19%
- OD450 of HBeAg (Hepatitis B virus (HBV)): 0.073
- inhibition at 100 µg/mL [1, 5]: < 50%
- Cell status (HepG2 cells): Poor
- inhibition at 50 µg/mL ([3]; Table 1): 53.9%
- inhibition at 50 µg/mL ([3]; Table 2 (repeated screening)): 50.3%

Structure (SMILES): C=C1CC2(OS(=O)(=O)O)OC3(CC2C(C)C)C(C)CCC13 (centres unmarked) [Compound 20, Curcumol sulfonate]
- (Value of the positive control - Measured Value) Value of the positive control × 100% (Hepatitis B virus (HBV)): −14.8148%
- OD450 of HBeAg (Hepatitis B virus (HBV)): 2.201
- IC50 [1]: 126 µM
- Cell status (HepG2 cells): Normal
- inhibition rate, Results (%) MCF-7 ([3]; Table 1): 18.9%
- inhibition rate, Results (%) MCF-7 ([3]; Table 2 (repeated screening)): 16.32%
- inhibition rate, Results (%) MCF-7 ([3]; Table 3 (repeated screening)): 14.23%

Structure (SMILES): C=C1CC2(OS(=O)(=O)[O-])OC3(CC2C(C)C)C(C)CCC13.[Na+] (centres unmarked) [Compound 21, Curcumol sodium sulfonate]
- (Value of the positive control - Measured Value) Value of the positive control × 100% (Hepatitis B virus (HBV)): 92.85%
- OD450 of HBeAg (Hepatitis B virus (HBV)): 0.137
- Average weight(g)-after administration [4, 6]: 22.1 g
- Tumor weight [4, 6]: 3.00 ± 0.29 g
- Average weight(g)-after administration [4, 7]: 22.0 g
- Tumor weight [4, 7]: 3.03 ± 0.41 g
- Average weight(g)-after administration [4, 8]: 22.1 g
- Inhibition rate (%) [4, 8]: 4.0%
- Tumor weight [4, 8]: 2.9 ± 0.31 g
- Average weight(g)-after administration [4, 9]: 22.1 g
- Tumor weight [4, 9]: 3.03 ± 0.29 g
- Average weight(g)-after administration [4, 10]: 22.0 g
- Tumor weight [4, 10]: 3.02 ± 0.41 g
- Average weight(g)-after administration [4, 11]: 22.1 g
- Inhibition rate (%) [4, 11]: 1.0%
- Tumor weight [4, 11]: 3.0 ± 0.31 g
- Average weight (g)-after administration [4, 12]: 22.1 g
- Tumor weight [4, 12]: 3.02 ± 0.29 g
- Average weight (g)-after administration [4, 13]: 21.0 g
- Tumor weight [4, 13]: 3.01 ± 0.41 g
- Average weight (g)-after administration [4, 14]: 20.1 g
- Inhibition rate (%) [4, 14]: 1.0%
- Tumor weight [4, 14]: 3.0 ± 0.31 g
- inhibitory effect against mouse grafted liver cancer H22 (in words) ([4]; three different concentrations (40, 20, 10 mg/kg), i.v.): little inhibitory effect
- IC50 [1, 5]: — (indicates that the initial concentration of the sample had a inhibition rate of less than 50% against HIV-1 IN.)
- TC50 (MDCK (dog kidney) cells): >1000 µg/mL
- inhibition rate, Results (%) MCF-7 ([3]; Table 1): 87.56%
- inhibition rate, Results (%) MCF-7 ([3]; Table 2 (repeated screening)): 85.23%
- inhibition rate, Results (%) MCF-7 ([3]; Table 3 (repeated screening)): 87.58%
